Assay results taken from patent US20140187784A1, “RADIOACTIVE QUINOLINONE DERIVATIVE AND PHARMACEUTICAL DRUG COMPRISING THE SAME” (Nihon Medi-Physics Co., Ltd., priority 2012, published 2014).

Assay: Pharmacokinetic and distribution experiment (radioactivity in blood and excised organs after tail vein injection)
Assay type: in vivo
Conditions: ddy mice; for Adrenal gland/Blood ratio / Radioactivity Distribution, Blood / Radioactivity Distribution, Femur / Radioactivity Distribution, Heart / Radioactivity Distribution, Large intestine / Radioactivity Distribution, Lung / Radioactivity Distribution, Small intestine / Radioactivity Distribution, Spleen / Radioactivity Distribution, Stomach / Adrenal gland/Kidney ratio / Radioactivity Distribution, Adrenal gland / Radioactivity Distribution, Kidney / Radioactivity Distribution, Liver / Radioactivity Distribution, Pancreas / Adrenal gland/Liver ratio: tail vein injection; for Adrenal gland/Blood ratio / Radioactivity Distribution, Blood / Radioactivity Distribution, Femur / Radioactivity Distribution, Heart / Radioactivity Distribution, Large intestine / Radioactivity Distribution, Lung / Radioactivity Distribution, Small intestine / Radioactivity Distribution, Spleen / Radioactivity Distribution, Stomach: 14.8 kBq (4 μCi); for Adrenal gland/Kidney ratio / Radioactivity Distribution, Adrenal gland / Radioactivity Distribution, Kidney / Radioactivity Distribution, Liver / Radioactivity Distribution, Pancreas: 14.8 kBq
Description: (§1) The HPLC fraction of [^125I]PAY15 obtained in Example 3 was concentrated and then diluted with saline. The resulting solution was used in administration. 100 μL of the solution (18.5 kBq (0.5 μCi)) was injected to the tail vein of each of five ddy mice (6 weeks old). Five minutes later, each mouse was decapitated, and blood was collected. Then, organs (adrenal gland, pancreas, heart, lung, stomach, small intestine, large intestine, liver, spleen, kidney, and thyroid gland) were excised. After measurement of their weights, the radioactivities of blood and each excised organ were measured. Also, the point in time when each mouse was decapitated was changed to 5, 15, 30, 60, and 120 minutes later to perform similar operation.
The HPLC fraction of [^125I]PAY21 obtained in Example 6 was concentrated and then diluted with saline. The resulting solution was used in administration to perform the same operation as in Evaluation 1.
as §1, with “[^18F]PAY27 obtained” for “The HPLC fraction of [^125I]PAY15 obtained”, “Example 10” for “Example 3”, “was” for “was concentrated and then”, “solution (14.8” for “solution (18.5”, “kBq (4” for “kBq (0.5”, “and thigh bone)” for “and thyroid gland)”
as §1, with “[^18F]PAY54 obtained” for “The HPLC fraction of [^125I]PAY15 obtained”, “Example 13” for “Example 3”, “was” for “was concentrated and then”, “solution (14.8” for “solution (18.5”, “kBq (4” for “kBq (0.5”, “and thigh bone)” for “and thyroid gland)”

Compound: O=C1CCc2cc(-c3cncc(OCC[18F])c3)cc3c2N1CCC3 [[^18F]PAY27, 9-(5-(2-[^18F]fluoroethyloxy)pyridin-3-yl)-1,2,6,7-tetrahydro-5H-pyrido[3,2,1-ij]quinolin-3-one]
- radioactivity accumulation in the adrenal gland compared with blood and periadrenal tissues (at 60 minutes after administration): high radioactivity accumulation
- Adrenal gland/Blood ratio (5 min): 1.11 ± 0.17
- Radioactivity Distribution, Blood (5 min): 4.0 ± 0.3 % dose/g
- Radioactivity Distribution, Femur (5 min): 1.8 ± 0.1 % dose/g
- Radioactivity Distribution, Heart (5 min): 3.9 ± 0.3 % dose/g
- Radioactivity Distribution, Large intestine (5 min): 2.5 ± 0.2 % dose/g
- Radioactivity Distribution, Lung (5 min): 3.7 ± 0.4 % dose/g
- Radioactivity Distribution, Small intestine (5 min): 5.0 ± 0.4 % dose/g
- Radioactivity Distribution, Spleen (5 min): 3.0 ± 0.2 % dose/g
- Radioactivity Distribution, Stomach (5 min): 5.1 ± 0.4 % dose/g
- Adrenal gland/Blood ratio (15 min): 0.83 ± 0.12
- Radioactivity Distribution, Blood (15 min): 4.1 ± 0.2 % dose/g
- Radioactivity Distribution, Femur (15 min): 2.3 ± 0.1 % dose/g
- Radioactivity Distribution, Heart (15 min): 3.6 ± 0.2 % dose/g
- Radioactivity Distribution, Large intestine (15 min): 5.0 ± 0.4 % dose/g
- Radioactivity Distribution, Lung (15 min): 3.6 ± 0.1 % dose/g
- Radioactivity Distribution, Small intestine (15 min): 6.7 ± 0.6 % dose/g
- Radioactivity Distribution, Spleen (15 min): 2.8 ± 0.2 % dose/g
- Radioactivity Distribution, Stomach (15 min): 5.6 ± 1.1 % dose/g
- Adrenal gland/Blood ratio (30 min): 0.88 ± 0.18
- Radioactivity Distribution, Blood (30 min): 3.6 ± 0.3 % dose/g
- Radioactivity Distribution, Femur (30 min): 2.4 ± 0.2 % dose/g
- Radioactivity Distribution, Heart (30 min): 3.2 ± 0.4 % dose/g
- Radioactivity Distribution, Large intestine (30 min): 6.1 ± 0.4 % dose/g
- Radioactivity Distribution, Lung (30 min): 2.7 ± 0.2 % dose/g
- Radioactivity Distribution, Small intestine (30 min): 5.9 ± 0.5 % dose/g
- Radioactivity Distribution, Spleen (30 min): 2.3 ± 0.1 % dose/g
- Radioactivity Distribution, Stomach (30 min): 5.5 ± 0.4 % dose/g
- Adrenal gland/Blood ratio (60 min): 1.43 ± 0.47
- Radioactivity Distribution, Blood (60 min): 3.3 ± 0.1 % dose/g
- Radioactivity Distribution, Femur (60 min): 3.9 ± 0.2 % dose/g
- Radioactivity Distribution, Heart (60 min): 3.0 ± 0.2 % dose/g
- Radioactivity Distribution, Large intestine (60 min): 7.0 ± 0.6 % dose/g
- Radioactivity Distribution, Lung (60 min): 2.6 ± 0.2 % dose/g
- Radioactivity Distribution, Small intestine (60 min): 6.0 ± 0.7 % dose/g
- Radioactivity Distribution, Spleen (60 min): 2.2 ± 0.2 % dose/g
- Radioactivity Distribution, Stomach (60 min): 4.1 ± 0.9 % dose/g
- Adrenal gland/Blood ratio (120 min): 0.58 ± 0.44
- Radioactivity Distribution, Blood (120 min): 2.8 ± 0.5 % dose/g
- Radioactivity Distribution, Femur (120 min): 6.4 ± 0.4 % dose/g
- Radioactivity Distribution, Heart (120 min): 2.4 ± 0.3 % dose/g
- Radioactivity Distribution, Large intestine (120 min): 9.1 ± 1.4 % dose/g
- Radioactivity Distribution, Lung (120 min): 2.1 ± 0.1 % dose/g
- Radioactivity Distribution, Small intestine (120 min): 3.1 ± 0.6 % dose/g
- Radioactivity Distribution, Spleen (120 min): 1.8 ± 0.2 % dose/g
- Radioactivity Distribution, Stomach (120 min): 3.9 ± 0.6 % dose/g
- Adrenal gland/Kidney ratio (5 min): 1.00 ± 0.19
- Radioactivity Distribution, Adrenal gland (5 min): 4.5 ± 0.8 % dose/g
- Radioactivity Distribution, Kidney (5 min): 4.5 ± 0.3 % dose/g
- Radioactivity Distribution, Liver (5 min): 6.5 ± 1.0 % dose/g
- Radioactivity Distribution, Pancreas (5 min): 3.0 ± 0.4 % dose/g
- Adrenal gland/Kidney ratio (15 min): 0.99 ± 0.23
- Radioactivity Distribution, Adrenal gland (15 min): 3.4 ± 0.5 % dose/g
- Radioactivity Distribution, Kidney (15 min): 3.5 ± 0.3 % dose/g
- Radioactivity Distribution, Liver (15 min): 5.1 ± 0.3 % dose/g
- Radioactivity Distribution, Pancreas (15 min): 2.5 ± 0.2 % dose/g
- Adrenal gland/Kidney ratio (30 min): 1.40 ± 0.28
- Radioactivity Distribution, Adrenal gland (30 min): 3.2 ± 0.6 % dose/g
- Radioactivity Distribution, Kidney (30 min): 2.3 ± 0.2 % dose/g
- Radioactivity Distribution, Liver (30 min): 4.1 ± 0.5 % dose/g
- Radioactivity Distribution, Pancreas (30 min): 2.0 ± 0.1 % dose/g
- Adrenal gland/Kidney ratio (60 min): 1.88 ± 0.55
- Radioactivity Distribution, Adrenal gland (60 min): 4.7 ± 1.7 % dose/g
- Radioactivity Distribution, Kidney (60 min): 2.5 ± 0.4 % dose/g
- Radioactivity Distribution, Liver (60 min): 3.7 ± 0.3 % dose/g
- Radioactivity Distribution, Pancreas (60 min): 2.0 ± 0.1 % dose/g
- Adrenal gland/Kidney ratio (120 min): 0.99 ± 0.77
- Radioactivity Distribution, Adrenal gland (120 min): 2.2 ± 1.2 % dose/g
- Radioactivity Distribution, Kidney (120 min): 1.7 ± 0.1 % dose/g
- Radioactivity Distribution, Liver (120 min): 2.9 ± 0.5 % dose/g
- Radioactivity Distribution, Pancreas (120 min): 1.5 ± 0.2 % dose/g
- Adrenal gland/Liver ratio (5 min): 0.70 ± 0.16
- Adrenal gland/Liver ratio (15 min): 0.67 ± 0.06
- Adrenal gland/Liver ratio (30 min): 0.79 ± 0.20
- Adrenal gland/Liver ratio (60 min): 1.26 ± 0.37
- Adrenal gland/Liver ratio (120 min): 0.58 ± 0.46
